Assay results: the NIST ThermoML archive (doi:10.1016/j.jct.2015.08.014)
± gives the expanded uncertainty stated by the source.

Assay: xn = mol fraction of the nth substance listed
Conditions: 298.15 K, 100 kPa, Liquid; for viscosity: Capillary tube (Ostwald / Ubbelohde) method; for electrical conductivity: Alternating current cell with electrodes

CCCC[N+]1(C)CCCC1.N#CN=C=[N-] [1-butyl-1-methylpyrrolidinium dicyanamide] + O=C1CCCO1
Conditions	viscosity [mPa·s]
x1 = 0.4985	11.38 ± 0.25
x1 = 0.6954	18.62 ± 0.42
x1 = 0.9013	28.31 ± 0.64
x1 = 1	33.71 ± 0.77

electrical conductivity [S/m]
Conditions	Frequency=0.0005 MHz	Frequency=0.001 MHz	Frequency=0.0015 MHz	Frequency=0.002 MHz	Frequency=0.0025 MHz
x1 = 0.0463	1.46 ± 0.026	1.47 ± 0.026	1.47 ± 0.026	1.47 ± 0.026	1.47 ± 0.026
x1 = 0.0987	2.2 ± 0.027	2.2 ± 0.027	2.21 ± 0.027	2.21 ± 0.027	2.21 ± 0.027
x1 = 0.1449	2.51 ± 0.026	2.51 ± 0.026	2.51 ± 0.026	2.51 ± 0.026	2.51 ± 0.026
x1 = 0.1859	2.65 ± 0.027	2.65 ± 0.027	2.66 ± 0.027	2.66 ± 0.027	2.67 ± 0.027
x1 = 0.2493	2.606 ± 0.026	2.608 ± 0.026	2.61 ± 0.026	2.61 ± 0.026	2.611 ± 0.026
x1 = 0.3029	2.526 ± 0.025	2.53 ± 0.026	2.53 ± 0.026	2.54 ± 0.026	2.54 ± 0.026
x1 = 0.3845	2.35 ± 0.024	2.36 ± 0.024	2.36 ± 0.024	2.36 ± 0.024	–
x1 = 0.4985	2.08 ± 0.021	2.08 ± 0.021	2.08 ± 0.021	2.08 ± 0.021	–
x1 = 0.6954	1.67 ± 0.017	1.68 ± 0.017	1.68 ± 0.017	1.68 ± 0.017	–
x1 = 0.9013	1.39 ± 0.014	1.39 ± 0.014	1.39 ± 0.014	1.39 ± 0.014	–
x1 = 1	1.315 ± 0.013	1.316 ± 0.013	1.316 ± 0.013	1.316 ± 0.013	–
